The record followed here is patent US10987354B2, “Inhibitors of influenza virus replication and uses thereof” (SUNSHINE LAKE PHARMA CO., LTD., priority 2016, dated 2021).

Each structure is given as a SMILES string. Read-outs that look alike come from different tables or passages of the source.

As usually defined, the AUC(0-inf) is total exposure, with the tail of the curve extrapolated. A higher AUC(0-inf) goes with more exposure. A word on the AUC(0-t): it is the area under the concentration-time curve up to a stated or last time point. In general, clearance refers to the rate of elimination divided by the concentration. Lower therefore signals inefficient removal.

One series relates to virus H1N1 A/Weiss/43. Briefly: microbe, parasite or virus in culture. The note with it: Influenza A virus, H1N1, 120 h; MDCK cells, CPE, 5 days, CCK-8; read-out: EC50, inhibitory activity against influenza virus (A/Weiss/43(H1N1)). The series is classed as cell-based.
Series [1] deals with Influenza B virus-B/Lee/40. Kind of series: microbe, parasite or virus in culture. The series is classed as cell-based. The note with it: 72 h, read-out: EC50, inhibitory activity against influenza virus (Influenza B virus-B/Lee/40).
The nature of the next series: in vivo. The note with it: SD, rat.
The mark [2] stands for this setting: MDCK cells, CPE, 3 days, CellTiter.

Procedure for in vivo: The compounds disclosed herein were administered in form of a saline solution containing 5% DMSO, 5% Kolliphor HS 15 and 90% Saline. For intravenous administration (iv), the animals were administered with a dose of 1 mg/kg, and blood samples (0.3 mL) were collected at the time points of 0.083, 0.25, 0.5, 1.0, 2.0, 5.0, 7.0 and 24 h after drug administration, then each blood sample was processed to separate plasma by centrifugation at 3000 rpm or 4000 rpm for 10 minutes. For oral administration (po), the animals were administered with a dose of 5 mg/kg, and blood samples (0.3 mL) were collected at the time points of 0.25, 0.5, 1.0, 2.0, 5.0, 7.0 and 24 h after drug administration, then each blood sample was processed to separate plasma by centrifugation at 3000 rpm or 4000 rpm for 10 minutes. Plasma samples were collected and stored at −20° C. or −70° C. until LC/MS/MS analysis.

In the case of `CC(C)n1ccc2c(N[C@H]3C4CCC(CC4)[C@@H]3C(=O)O)nc(-c3c[nH]c4ncc(Cl)nc34)nc21` [Example 20, (2S,3S)-3-((2-(2-chloro-5H-pyrrolo[2,3-b]pyrazin-7-yl)-7-isopropyl-7H-pyrrolo[2,3-d]pyrimidin-4-yl)amino)bicyclo[2.2.2]octane-2-carboxylic Acid], the EC50 in the series on virus H1N1 A/Weiss/43 worked out at 0.192 nM; in series [1] (setting [2]) it was 1620 nM.
For `O=C(O)[C@H]1C2CCC(CC2)[C@@H]1Nc1nc(-c2c[nH]c3ncc(Cl)nc23)nc(-n2cccc2)c1F` [Example 60, (2S,3S)-3-((2-(2-chloro-5H-pyrrolo[2,3-b]pyrazin-7-yl)-5-fluoro-6-(1H-pyrrol-1-yl)pyrimidin-4-yl)amino)bicyclo[2.2.2]octane-2-carboxylic Acid], the EC50 in series [1] (setting [2]) came to 26400 nM.
In the series “in vivo” (iv, 1 mg/kg), `O=C(O)[C@H]1C2CCC(CC2)[C@@H]1Nc1nc(-c2c[nH]c3ncc(Cl)nc23)nc(-c2ccc(F)s2)c1F` [Example 62, (2S,3S)-3-((2-(2-chloro-5H-pyrrolo[2,3-b]pyrazin-7-yl)-5-fluoro-6-(5-fluorothiophen-2-yl)pyrimidin-4-yl)amino)bicyclo[2.2.2]octane-2-carboxylic Acid] gave an AUC(0-inf) of 5510 ng·h/mL, an AUC(0-t) of 5390 ng·h/mL and a clearance of 50.7 mL/min/kg. In the series “in vivo” (po, 5 mg/kg), this molecule had an AUC(0-inf) of 25000 ng·h/mL and an AUC(0-t) of 24400 ng·h/mL. Further, the EC50 with virus H1N1 A/Weiss/43 is 0.011 nM.
As to `CC(C)Cn1ccc2c(N[C@H]3C4CCC(CC4)[C@@H]3C(=O)O)nc(-c3c[nH]c4ncc(Cl)nc34)nc21` [Example 66, (2S,3S)-3-((2-(2-chloro-5H-pyrrolo[2,3-b]pyrazin-7-yl)-7-isobutyl-7H-pyrrolo[2,3-d]pyrimidin-4-yl)amino)bicyclo[2.2.2]octane-2-carboxylic Acid], in “in vivo” (iv, 1 mg/kg), the AUC(0-inf) stood at 3480 ng·h/mL, the AUC(0-t) was 3470 ng·h/mL and the clearance was 82.5 mL/min/kg. Further, in the series “in vivo” (po, 5 mg/kg), the AUC(0-inf) amounted to 12600 ng·h/mL and the AUC(0-t) came out at 12500 ng·h/mL. Also, in the series with virus H1N1 A/Weiss/43, the EC50 was determined as 0.274 nM.
Turning to `O=C(O)C1C2CCC(CC2)C1Nc1nc(-c2c[nH]c3ncc(F)cc23)ncc1F` (stereo not shown) [JNJ-872, reference compound], in series [1] (MDCK), the EC50 is > 50000 nM.
